# Data: the METLIN SMRT retention time set (Domingo-Almenara et al. 2019)
# Assay: gradient 5% acetonitrile 3 min, to 50% in 2 min, to 85% in 15 min, held 3 min, 100 µL/min
# Conditions: column: Zorbax Extend-C18 2.1 x 50 mm; eluents: water / acetonitrile, 0.1% formic acid
# Procedure, shortened: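 Over 3 months, pure standards in mixtures of ~100 molecules were run by HPLC coupled to a quadrupole time-of-flight mass spectrometer in positive and negative ionization mode. The column was a Zorbax Extend-C18 (2.1 × 50 mm, 1.8 μm) at 100 μL/min, eluted with water and acetonitrile each holding 0.1% formic acid, with 40 μL dead and 900 μL dwell volumes. Retention time was determined from adduct peaks chosen by software and checked manually.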
row,RP-LC retention time [s],SMILES
1,714,COc1ccc(-c2nc3cc(C)ccn3c2Nc2ccc3c(c2)OCCO3)cc1
2,602,COc1ccccc1N1CCN(Cc2nc3nc(C)cc(N4CCOCC4)n3n2)CC1
3,560,CCc1nnc2c(=O)n(CC(=O)N3CCN(c4ccccn4)CC3)c3cccnc3n12
4,616,Cc1nnc2n1CCN(C(=O)Cc1c(F)cccc1Cl)C2
5,776,Cc1oc(C2CCN(S(=O)(=O)c3ccccc3F)CC2)nc1C(=O)N1CCOCC1
6,1410,Cc1cccc(-c2nc(C3CCN(S(=O)(=O)c4ccc5c(c4)CCCC5)CC3)no2)c1
7,599,Cn1cc(CCN2CCC(C(=O)NCc3cccc(F)c3)CC2)c2cccnc21
8,968,CCN1C(=O)COc2ccc(-c3csc(NC(=O)c4ccccc4Cl)n3)cc21
9,998,O=C(Nc1nc(-c2ccccc2)cs1)c1cncc(Br)c1
10,546,CC(C)N1CCC(CNC(=O)c2cccc3ccccc23)CC1
11,868,O=C(C1CC1)N1CCc2sc(S(=O)(=O)Nc3cc(Cl)ccc3F)cc2C1
12,670,COCCC(=O)N1CCc2c(c(-c3nc(C4CC4)no3)nn2C)C1
13,854,CCn1cc(SCC(=O)NCc2ccc3c(c2)OCO3)c2ccccc21
14,1170,Cc1cc(C(=O)Nc2ccc(Cl)cc2)nc2cc(-c3ccco3)nn12
15,974,CC1CCN(S(=O)(=O)c2cccn(Cc3cc(F)cc(F)c3)c2=O)CC1
16,694,COc1ccc(N2CCN(C(=O)CN3C(=O)NC4(CCCCC4)C3=O)CC2)cc1
17,961,Cc1ccc(CNC(=O)CN2C(=O)CCCc3cc(S(=O)(=O)N4CCC(C)CC4)ccc32)cc1
18,793,Cc1cc2nc(Nc3ncc4c(n3)CC(c3ccccc3)CC4=O)nc(C)c2cc1C (configuration not stated)
19,918,COC(=O)C1=CN(c2cc(Cl)c(OC)cc2OC)c2cc(F)ccc2S1(=O)=O
20,1130,CCN1CCCn2cc(S(=O)(=O)Nc3ccc(C)cc3)cc2C1=O
21,880,Cc1ccc(C)c(NC(=O)Cn2c(=O)n(-c3ccc(F)cc3)c3ncccc32)c1
22,732,Cn1c(=O)c2nc(SCCC(=O)Nc3ccc(Cl)cc3)n(C)c2n(C)c1=O

row,RP-LC retention time [s],SMILES
1,569,COc1cccc(CN2CCC3(CCC3O)CC2)n1 (configuration not stated)
2,717,CCn1c(CCc2ccccc2NS(=O)(=O)c2ccc3c(c2)OCCO3)nc2ccccc21
3,824,Cc1ccc(C)c(NC(=O)C2CCN(S(=O)(=O)c3ccc4c(c3)NC(=O)C(C)O4)CC2)c1 (configuration not stated)
4,1270,CCCCCn1c(=O)c2ccccc2n(Cc2nc(-c3ccc(F)cc3)no2)c1=O
5,735,Cc1ccc(CNC(=O)c2[nH]c3cc(C)sc3c2CN2CCOCC2)cc1
6,829,COc1cc(NC(=O)Cn2nc([N+](=O)[O-])cc2C)c(OC)cc1Cl
7,607,COCCCNC(=O)CCc1c(-c2ccc(Cl)cc2)nc2ccccn12
8,1140,O=C(NCc1cccc(C(F)(F)F)c1)c1ccnc(N2CCCCC2)n1
9,811,Cc1sc2ccn(C)c(=O)c2c1C(=O)NCc1ccc(Br)cc1
10,804,Cc1[nH]c(C(=O)N2CCCC(C(=O)NCc3ccc4c(c3)OCO4)C2)c(C)c1C (configuration not stated)
11,986,CCOc1ccc(-c2ccc(=O)n(CCc3nc(-c4ccc5c(c4)OCO5)no3)n2)cc1
12,566,CCn1ccc2sc(C)c(C(=O)N3CCC(N4CCCCC4)CC3)c2c1=O
13,732,Nc1cc(C2CCN(S(=O)(=O)c3ccccc3)CC2)no1
14,912,Cc1cccc(-n2c(=O)c3c(cc(C)n3C)n(CC(=O)Nc3ccc(C)c(C)c3)c2=O)c1
15,642,Cc1ccc(-c2cn3c(n2)N(C(=O)c2cnccn2)CCC3)cc1
16,635,COC(=O)c1ccc(C(=O)NCC2CCN(c3ncccn3)CC2)cc1
17,574,Cc1cc(CN2CCC(CNC(=O)c3ccc(S(=O)(=O)N(C)C)cc3)CC2)c(C)o1
18,1000,CCc1ccc(C(=O)Nc2nnc(SCc3nnc(-c4ccccc4)o3)s2)cc1
19,940,Cc1cc(-c2nnc(-c3ccc(F)cc3)o2)c(C)n1CC(=O)NCc1cccc(F)c1
20,828,CC(C)CN1C(=O)c2cccn2CC1C(=O)NCC1CCCCC1 (configuration not stated)
21,714,O=C(O)c1ccc(Nc2c(-c3cccc(Cl)c3)nc3cnccn23)cc1
22,1030,Cc1ccc(C)c(NC(=O)Cn2cccc(-c3nc(-c4ccc(Br)cc4)no3)c2=O)c1

row,RP-LC retention time [s],SMILES
1,1150,CCc1ccc(CNC(=O)C2CCCN(c3nccnc3Oc3ccc(C)cc3)C2)cc1 (configuration not stated)
2,834,CC(C(=O)Nc1ccc(F)cc1)C1CCN(C(=O)Nc2ccc(F)cc2)CC1 (configuration not stated)
3,802,CCC(C(=O)NC1CC1)n1nc(C)c2c(C)n(-c3ccc(C)cc3)nc2c1=O (configuration not stated)
4,705,Cc1noc(C)c1Cc1ccc(C(=O)NCC23CCCC=C2NC(=O)CC3)o1 (configuration not stated)
5,763,O=C(CN1C(=O)COc2ccc(C(=O)N3CCc4ccccc4C3)cc21)N1CCCC1
6,826,COc1cccc(CNC2=NCCNC23CCN(S(=O)(=O)c2c(C)cc(C)cc2C)CC3)c1
7,787,COc1ccc(S(=O)(=O)C(CNC(=O)c2ccc3c(c2)OCO3)c2cccs2)cc1 (configuration not stated)
8,861,CCCNC(=O)N1CCCN(C2=NS(=O)(=O)C(c3ccc(F)cc3)=C2C)CC1
9,844,CCOC(=O)c1c(NCCc2cccs2)c2cccc(Cl)c2[nH]c1=O
10,742,CN(CCc1noc(-c2ccc(C(=O)N3CCCCC3)cc2)n1)C(=O)C1CC1
11,730,COc1cc(OC)c(NC(=O)CN2CCC(C(=O)N3CC(C)CC(C)C3)CC2)cc1Cl (configuration not stated)
12,705,COc1nn(C)cc1C(=O)N1CCCC(C(=O)NCc2ccccc2OC(F)(F)F)C1 (configuration not stated)
13,663,CC(=O)N1CCCCC1c1nc(-c2cccnc2)no1 (configuration not stated)
14,746,COc1ccc(OC)c(CNC(=O)C2CCCN(c3ncnc4c3nc3n4CCCCC3)C2)c1 (configuration not stated)
15,1050,O=C(c1cncc(Br)c1)N1CCC(Cc2nc(-c3ccc(Cl)cc3)no2)CC1
16,603,Cc1ccc(CN2CCCC(c3nc(-c4cnccn4)no3)CCNC(=O)CC2)s1 (configuration not stated)
17,572,Cc1cc(F)ccc1S(=O)(=O)NCC(c1ccsc1)N1CCOCC1 (configuration not stated)
18,849,Cc1ccc(S(=O)(=O)N2CC3CN(C(=O)COCc4ccccc4)CC(C2)O3)cc1
19,665,CC(C)CN1CCN(Cc2nc(Cn3ccn4nc(-c5ccccc5)cc4c3=O)no2)CC1
20,839,COc1ccc(C)cc1NS(=O)(=O)c1cc2c(s1)CCN(C(=O)C1CC1)C2
21,896,Cc1cc(F)ccc1NC(=O)CN1C(=O)C2CCCCN2c2ccc(S(=O)(=O)N(C)C)cc21 (configuration not stated)
22,668,O=C(N1CCOCC1)N1CCN(S(=O)(=O)c2cccc([N+](=O)[O-])c2)CC1

row,RP-LC retention time [s],SMILES
1,573,COCCNC(=O)c1ccc2nc(CCc3ccc(NC(C)=O)cc3)[nH]c2c1
2,881,O=C(NCCC1CCN(S(=O)(=O)c2ccc(F)cc2)CC1)Nc1ccccc1
3,1020,O=C(CCC1CCCCC1)Nc1nc(-c2ccc3c(c2)NC(=O)CO3)cs1
4,1120,COc1ccccc1-c1cc2c(=O)n(Cc3nc(-c4ccccc4)oc3C)ccn2n1
5,762,Cc1noc(-c2nn(C)c3c2CN(C(=O)Cc2ccc(Cl)cc2)CC3)n1
6,642,CNC(=O)c1cn(-c2ccc(SCC(=O)NCc3ccc4c(c3)OCO4)nn2)cn1
7,824,CCCNC(=O)c1nnc(-c2ccc(S(=O)(=O)N3CCCC3)cc2)o1
8,658,COc1ccc(S(=O)(=O)NC2CCN(C(=O)c3ccnn3C)CC2)cc1
9,959,Cc1cccc(NC(=O)N2CCCC(C)(C(=O)NCc3ccccc3C)C2)c1 (configuration not stated)
10,682,O=C(Cn1nc2c(cc1=O)CCCC2)N[C@@H](Cc1ccccc1)C(=O)O
11,797,Cc1nc(N2CCOCC2)c2c(C(=O)NCc3ccc(Cl)cc3)c(C)oc2n1
12,742,CCOc1ccc(CC(=O)N2CCN(c3c(C)n(C)c(=O)n(C)c3=O)CC2)cc1OCC
13,1090,COc1cccc(-c2noc(CN3C(=O)COc4cc(Cl)ccc43)n2)c1
14,753,CCn1cnc(S(=O)(=O)N2CCCC(C(=O)Nc3ccc(C)cc3C)C2)c1 (configuration not stated)
15,992,CCOC(=O)c1cc(S(=O)(=O)N2CCCC2C(=O)N(Cc2ccco2)C2CCCC2)cn1C (configuration not stated)
16,721,CCOCCCNC(=O)C(C)n1nc(C)c2c(C)n(-c3ccccc3)nc2c1=O (configuration not stated)
17,691,O=C(NCCCNc1nc(Nc2cccc(NC(=O)N3CCCC3)c2)ncc1I)c1cccs1
18,1110,Cc1ccc(S(=O)(=O)N2CCCCC2)cc1-c1nnc(-c2ccc(F)cc2)o1
19,872,CCC1Oc2ccc(S(=O)(=O)N3CCC(C(=O)N(C)Cc4ccccc4)CC3)cc2NC1=O (configuration not stated)
20,779,Cn1nccc1C(=O)NCc1ccc2c(c1)CCN2C(=O)c1ccc(F)cc1

row,SMILES,RP-LC retention time [s]
1,CN1C(=O)C2CCCCN2c2ccc(C(=O)N3CCC4(CC3)OCCO4)cc21 (configuration not stated),750
